The values below come from patent publication US12624004B2 (Fudan University, priority 2019, dated 2026).

Structures can show the parent of a compound that is named as a salt. Where two headings read alike, the source gives them in different places.

One test concerns the target T1, μ opioid receptor (Homo sapiens, UniProt P35372).
T1 construct: expressed in transfected cells; host or cells: CHO cells (membranes)
The experiment in a line: Competition binding assay on membranes of CHO cells expressing μ opioid receptor, [3H]-labeled ligand. Particulars: for inhibition at 1 µM: read-out: μOR Binding rate (%); for Ki: read-out: μOR Ki. In outline: (§1)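 CHO membranes (20–30 μg protein) incubated with [3H]-labeled ligand at 1–2 nM and test compounds, 30 min at 30° C; nonspecific binding with 1 μM corresponding ligand. Filtered on GF/C, washed with 50 mM Tris-HCl pH 7.4, scintillation-counted. IC50 converted to Ki by Ki=IC50/(1+[L]/Kd).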

The next test addresses T2, δ opioid receptor (Homo sapiens, UniProt P41143).
T2 construct: expressed in transfected cells; host or cells: CHO cells (membranes)
The experiment in a line: Competition binding assay on membranes of CHO cells expressing δ opioid receptor, [3H]-labeled ligand. Particulars: for inhibition at 1 µM: 0.5 h, read-out: δOR Binding rate (%). In outline:
as §1

The target of the next test is T3, κ opioid receptor (Homo sapiens, UniProt P41145).
T3 construct: expressed in transfected cells; host or cells: CHO cells (membranes)
The test is described as follows: Competition binding assay on membranes of CHO cells expressing κ opioid receptor, [3H]-labeled ligand. The conditions noted are these: for inhibition at 1 µM: 0.5 h, read-out: κOR Binding rate (%). In outline: as §1

The test system of another test is Female mice. The experiment in a line: In vivo hot plate method analgesia test. Particulars: intraperitoneal; for % MPE @ 10 mg/kg: Table 3-2, hot plate 55° C.; for ED50: Mus musculus, ip, Table 2-2, hot plate; for % MPE (5 mg/kg): Table 2-2, hot plate 55° C. In short, it runs like this:
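Female mice (~20 g) on a 55° C hot plate, hindpaw response latency as pain threshold (pre-screen 5–30 s, 60 s cut-off). Latencies at 15, 30, 60 and 120 min after intraperitoneal dosing. %MPE = (post−pre latency)/(60−pre)×100, ED50 derived from %MPE.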
On the technique in general: Thermal pain tests record how soon the animal reacts.

[1] abbreviates: Table 3-1, 1 μM concentration of compounds.
Where [2] appears, read: Table 2-1, 1 μM concentration of compound.

In general, Ki refers to the equilibrium dissociation constant of an inhibitor or competing ligand from its target. What is called ED50 is the dose that gives a 50% effect, or the effect in half of the subjects. Higher therefore signals weaker potency.

Regarding `COc1cccc(C2(O)CCN(C(=O)NC34CC5CC(CC(O)(C5)C3)C4)CC2CN(C)C)c1.Cl` [FWBF16, 3-((dimethylamino)methyl)-4-hydroxy-N-((1R,3S,5R,7S)-3-hydroxyadamantan-1-yl)-4-(3-methoxyphenyl)piperidine-1-carboxamide hydrochloride], the inhibition at 1 µM at μ opioid receptor (setting [1]) was 0%; on δ opioid receptor (setting [1]), 1.9%; at κ opioid receptor (setting [1]) it was 0%. Moreover, in the test on Female mice, the “% MPE @ 10 mg/kg” value is recorded as 16.07%.
For `COC(=O)c1sccc1NC(=O)N1CCC(O)(c2cccc(OC)c2)C(CN(C)C)C1` (stereo not drawn) [FWBF17, Methyl 3-(3-((dimethylamino)methyl)-4-hydroxy-4-(3-methoxyphenyl)piperidine-1-carboxamide) thiophene-2-carboxylate hydrochloride], the inhibition at 1 µM on μ opioid receptor (setting [1]) is 10.2 ± 9%; on δ opioid receptor (setting [1]), 0%; on κ opioid receptor (setting [1]) it was 0%. Besides, in the test on Female mice, the “% MPE @ 10 mg/kg” value is 19.34%.
For `COC(=O)c1ccsc1NC(=O)N1CCC(O)(c2cccc(OC)c2)C(CN(C)C)C1` (stereo not drawn) [FWBF18, Methyl 2-(3-((dimethylamino)methyl)-4-hydroxy-4-(3-methoxyphenyl)piperidine-1-carboxamide) thiophene-3-carboxylate hydrochloride], the inhibition at 1 µM was determined as 2.3% at μ opioid receptor (setting [1]), 16 ± 12.4% on δ opioid receptor (setting [1]) and 9.2 ± 3.1% on κ opioid receptor (setting [1]). Moreover, the “% MPE @ 10 mg/kg” value in the test on Female mice is 22.76%.
Taken in the same sequence, the figures for `COc1cccc(C2(O)CCN(C(=O)Nc3cccs3)CC2CN(C)C)c1` (stereo not drawn) [FWBF19, 3-((Dimethylamino)methyl)-4-hydroxy-4-(3-methoxyphenyl)-N-(thiophen-2-yl)piperidine-1-carboxamide hydrochloride] were 0%, 38.2 ± 9.4%, 27.5 ± 6.4% and 20.07%.
For `COc1cccc(C2(O)CCN(S(=O)(=O)Cc3ccccc3)CC2CN(C)C)c1.Cl` (stereo not drawn) [FWBH6, 1-(Benzylsulfonyl)-3-((dimethylamino)methyl)-4-(3-methoxyphenyl)piperidin-4-ol hydrochloride], the inhibition at 1 µM at μ opioid receptor (setting [2]) was found to be 0%. For the same compound, the Ki at δ opioid receptor and on κ opioid receptor was above 10000 nM throughout. Besides, the ED50 in the test with Female mice is 1.1 mg/kg.
For `COc1cccc(C2(O)CCN(S(=O)(=O)Cc3cccc(Cl)c3)CC2CN(C)C)c1.Cl` (stereo not drawn) [FWBH7, 1-((3-Chlorobenzyl)sulfonyl)-3-((dimethylamino)methyl)-4-(3-methoxyphenyl)piperidin-4-ol hydrochloride], the values for the inhibition at 1 µM on μ opioid receptor (setting [2]), on δ opioid receptor (setting [2]) and at κ opioid receptor (setting [2]) were 21.9 ± 2.4%, 28.8 ± 0.04% and 0%, respectively. This compound also gave a median effective dose (ED50) in the test with Female mice of 1.58 mg/kg.
Take `COc1cccc(C2(O)CCN(S(=O)(=O)Cc3ccc(C)cc3)CC2CN(C)C)c1.Cl` (stereo not drawn) [FWBH8, 3-((Dimethylamino)methyl)-4-(3-methoxyphenyl)-1-((4-methylbenzyl)sulfonyl)piperidin-4-ol hydrochloride]: on μ opioid receptor (Table 2-1), the Ki is 247 ± 49.4 nM. Further, the inhibition at 1 µM is 11.9 ± 1.31% at δ opioid receptor (setting [2]) and 29 ± 0.32% on κ opioid receptor (setting [2]). The “% MPE (5 mg/kg)” value in the test on Female mice was determined as 17.36%.
For `COc1cccc(C2(O)CCN(S(=O)(=O)CCc3ccccc3)CC2CN(C)C)c1.Cl` (stereo not drawn) [FWBH9, 3-((Dimethylamino)methyl)-4-(3-methoxyphenyl)-1-(phenethylsulfonyl)piperidin-4-ol hydrochloride], on μ opioid receptor (Table 2-1), the Ki amounted to 1.79 ± 2 nM. Besides, the inhibition at 1 µM was found to be 0% on δ opioid receptor (setting [2]) and 8.41 ± 1.66% at κ opioid receptor (setting [2]). Besides, in the test on Female mice, the “% MPE (5 mg/kg)” value is 100%.
Consider `COc1cccc(C2(O)CCN(S(=O)(=O)Cc3cccc(C(F)(F)F)c3)CC2CN(C)C)c1.Cl` (stereo not drawn) [FWBH10, 3-((Dimethylamino)methyl)-4-(3-methoxyphenyl)-1-((3-(trifluoromethyl)benzyl)sulfonyl) piperidin-4-ol hydrochloride], for which the Ki on μ opioid receptor (Table 2-1) was found to be 4.68 ± 0.12 nM; on δ opioid receptor (Table 2-1, read-out: δOR Ki) it was 3650 ± 1250 nM. Besides, at κ opioid receptor (setting [2]), the inhibition at 1 µM worked out at 30.1 ± 0.7%. Further, in the test with Female mice, the “% MPE (5 mg/kg)” value was 72.41%.
For `COc1cccc(C2(O)CCN(S(=O)(=O)Cc3ccc(Cl)cc3)CC2CN(C)C)c1.Cl` (stereo not drawn) [FWBH11, 1-((4-Chlorobenzyl)sulfonyl)-3-((dimethylamino)methyl)-4-(3-methoxyphenyl)piperidin-4-ol hydrochloride], at μ opioid receptor (Table 2-1), the Ki came to 711.7 ± 3.65 nM. The inhibition at 1 µM worked out at 50.9 ± 1.58% at δ opioid receptor (setting [2]) and 36.6 ± 3.32% on κ opioid receptor (setting [2]). The “% MPE (5 mg/kg)” value in the test with Female mice was determined as 55.49%.
With `COc1cccc(C2(O)CCN(S(=O)(=O)Cc3ccc(F)cc3)CC2CN(C)C)c1.Cl` (stereo not drawn) [FWBH12, 3-((Dimethylamino)methyl)-1-((4-fluorobenzyl)sulfonyl)-4-(3-methoxyphenyl)piperidin-4-ol hydrochloride], the Ki at μ opioid receptor (Table 2-1) worked out at 39.2 ± 6.13 nM; at δ opioid receptor (Table 2-1, read-out: δOR Ki), 1110 ± 28.5 nM. In addition, the inhibition at 1 µM at κ opioid receptor (setting [2]) amounted to 45.9 ± 2.11%. In addition, the “% MPE (5 mg/kg)” value in the test on Female mice is given as 332.92%.
On to `COc1cccc(C2(O)CCN(S(=O)(=O)Cc3cccc(Br)c3)CC2CN(C)C)c1.Cl` (stereo not drawn) [FWBH13, 1-((3-Bromobenzyl)sulfonyl)-3-((dimethylamino)methyl)-4-(3-methoxyphenyl)piperidin-4-ol hydrochloride], for which the Ki on μ opioid receptor (Table 2-1) turned out to be 18.2 ± 4.37 nM. Besides, the inhibition at 1 µM amounted to 15.1 ± 2.47% at δ opioid receptor (setting [2]) and 42.1 ± 2.29% at κ opioid receptor (setting [2]). For the same compound, the “% MPE (5 mg/kg)” value in the test on Female mice worked out at 81.71%.
Take `COc1cccc(C2(O)CCN(S(=O)(=O)Cc3ccccc3F)CC2CN(C)C)c1.Cl` (stereo not drawn) [FWBH14, 3-((Dimethylamino)methyl)-1-((2-fluorobenzyl)sulfonyl)-4-(3-methoxyphenyl)piperidin-4-ol hydrochloride]: at μ opioid receptor (Table 2-1), the inhibition constant (Ki) was determined as 29.6 ± 2.53 nM. Further, the figures for the inhibition at 1 µM at δ opioid receptor (setting [2]) and at κ opioid receptor (setting [2]) were 40.8 ± 2.66% and 17.6 ± 6.34%, respectively. In the test with Female mice, the “% MPE (5 mg/kg)” value is recorded as 81.20%.
Regarding `CCCCS(=O)(=O)N1CCC(O)(c2cccc(OC)c2)C(CN(C)C)C1.Cl` (stereo not drawn) [FWBH15, 1-(Butylsulfonyl)-3-((dimethylamino)methyl)-4-(3-methoxyphenyl)piperidin-4-ol hydrochloride], the Ki at μ opioid receptor (Table 2-1) turned out to be 34.9 ± 9.4 nM. In addition, the inhibition at 1 µM at δ opioid receptor (setting [2]) was 27.2 ± 1.43%; on κ opioid receptor (setting [2]), 9.86 ± 2.67%. Further, in the test on Female mice, the “% MPE (5 mg/kg)” value came out at 93.73%.
For `COc1cccc(C2(O)CCN(S(=O)(=O)c3ccccc3)CC2CN(C)C)c1.Cl` (stereo not drawn) [FWBH16, 3-((Dimethylamino)methyl)-4-(3-methoxyphenyl)-1-(phenylsulfonyl)piperidin-4-ol hydrochloride] the same measures were 87.7 ± 9.37 nM, 40.5 ± 1.66%, 32.6 ± 0.55% and 100%.
Turning to `COc1cccc(C2(O)CCN(S(=O)(=O)Cc3ccc(C(F)(F)F)cc3)CC2CN(C)C)c1.Cl` (stereo not drawn) [FWBH17, 3-((Dimethylamino)methyl)-4-(3-methoxyphenyl)-1-((4-(trifluoromethyl)benzyl)sulfonyl) piperidin-4-ol hydrochloride], the Ki on μ opioid receptor (Table 2-1) was found to be 261 ± 35.3 nM. For the same compound, the inhibition at 1 µM at δ opioid receptor (setting [2]) amounted to 29.3 ± 1.66%; at κ opioid receptor (setting [2]), 25.4 ± 5.93%. Also, the “% MPE (5 mg/kg)” value in the test on Female mice turned out to be 48.32%.
For `CCS(=O)(=O)N1CCC(O)(c2cccc(OC)c2)C(CN(C)C)C1.Cl` (stereo not drawn) [FWBH18, 3-((Dimethylamino)methyl)-1-(ethylsulfonyl)-4-(3-methoxyphenyl)piperidin-4-ol hydrochloride] the same measures were 180 ± 11.7 nM, 24 ± 0.49%, 13.5 ± 2.22% and 15.57%.
For `CCCS(=O)(=O)N1CCC(O)(c2cccc(OC)c2)C(CN(C)C)C1.Cl` (stereo not drawn) [FWBH19, 3-((Dimethylamino)methyl)-4-(3-methoxyphenyl)-1-(propylsulfonyl)piperidin-4-ol hydrochloride] the same measures were 133 ± 3.1 nM, 17.5 ± 4.38%, 19.1 ± 10.3% and 17.04%.
Taken in the same sequence, the figures for `COc1cccc(C2(O)CCN(S(=O)(=O)C(C)C)CC2CN(C)C)c1.Cl` (stereo not drawn) [FWBH20, 3-((Dimethylamino)methyl)-1-(isopropylsulfonyl)-4-(3-methoxyphenyl)piperidin-4-ol hydrochloride] were 255 ± 5.3 nM, 20.8 ± 1.91%, 6.88 ± 4.38% and 0%.
Consider `C=CCS(=O)(=O)N1CCC(O)(c2cccc(OC)c2)C(CN(C)C)C1.Cl` (stereo not drawn) [FWBH21, 1-(Allylsulfonyl)-3-((dimethylamino)methyl)-4-(3-methoxyphenyl)piperidin-4-ol hydrochloride], for which the Ki on μ opioid receptor (Table 2-1) was 40.4 ± 4.99 nM. Also, the inhibition at 1 µM at δ opioid receptor (setting [2]) worked out at 31.52 ± 0.21%; on κ opioid receptor (setting [2]), 17.1%. The “% MPE (5 mg/kg)” value in the test with Female mice was 18.80%.
As for `COc1cccc(C2(O)CCN(S(=O)(=O)Cc3cccc([N+](=O)[O-])c3)CC2CN(C)C)c1.Cl` (stereo not drawn) [FWBH22, 3-((Dimethylamino)methyl)-4-(3-methoxyphenyl)-1-((3-nitrobenzyl)sulfonyl)piperidin-4-ol hydrochloride], on μ opioid receptor (Table 2-1), the Ki was 212 ± 9 nM. Also, the inhibition at 1 µM was 10.2 ± 3.19% on δ opioid receptor (setting [2]) and 32.7 ± 3.1% on κ opioid receptor (setting [2]). For the same compound, in the test on Female mice, the “% MPE (5 mg/kg)” value was determined as 41.43%.
